Values joined by “and” are separate entries in the source; they are usually repeats but may differ in a detail not shown here. Equal entries are not always repeated. Where two headings read alike, the source gives them in different places.
Key:
[1] = molecular target: T1, EphrinB2-EphB1 (Homo sapiens, UniProt P54762); assay: Octet 80 sec association/500 sec dissociation, immobilized human EphrinB2-Fc binding to soluble human EphB1-His; conditions: for EphB1 Inhibition Percent, Inhibition of Association ONLY: at 3.2 μM and 80 seconds; for EphB1 Inhibition Percent, Inhibition of Association ONLY / EphB1 Inhibition Percent, Inhibition of Association-Dissociation: immobilized human EphrinB2, 25 nM soluble human EphB1; for EphB1 Inhibition Percent, Inhibition of Association-Dissociation: at 3.2 μM and 580 seconds
T1 construct: soluble human EphB1-His, EphB2-His, and EphB4-His ectodomains; commercially available human EphrinB1-Fc (EB1), EphrinB2-Fc (EB2), and EphrinB3-Fc (EB3) ectodomain proteins; purchased
T1 sequence (P54762 18-540 limits assumed): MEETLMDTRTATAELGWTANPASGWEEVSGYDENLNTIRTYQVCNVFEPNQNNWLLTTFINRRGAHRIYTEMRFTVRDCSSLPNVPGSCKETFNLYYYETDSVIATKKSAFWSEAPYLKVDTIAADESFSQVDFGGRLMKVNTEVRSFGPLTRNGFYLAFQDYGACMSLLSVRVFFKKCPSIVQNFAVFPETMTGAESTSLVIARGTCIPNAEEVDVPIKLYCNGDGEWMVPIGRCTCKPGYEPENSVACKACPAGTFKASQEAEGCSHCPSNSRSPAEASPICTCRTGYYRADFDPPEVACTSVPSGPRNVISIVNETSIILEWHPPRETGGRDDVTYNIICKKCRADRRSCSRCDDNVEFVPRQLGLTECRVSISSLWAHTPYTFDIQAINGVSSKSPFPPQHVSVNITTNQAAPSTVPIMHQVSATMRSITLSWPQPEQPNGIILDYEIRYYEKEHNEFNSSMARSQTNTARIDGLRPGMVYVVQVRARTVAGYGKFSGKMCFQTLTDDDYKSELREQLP
Procedure, shortened: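 EphrinB2-Fc captured on AHC biosensors, then soluble His-tagged EphB ectodomain (25 nM for % inhibition runs) associated 80 s and dissociated 500 s in PBS, 0.05% Tween-20, 1% DMSO ± compound. Compounds tested at 0.1–3.2 μM with a 10 μM max standard; IC50 from AUC of full traces or at 75 s and 135 s.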

[2] = molecular target: T2, EphrinB2-EphB2 (Homo sapiens, UniProt P29323); assay: Octet tetramerization inhibition, immobilized human EphrinB2 binding to 50 nM soluble human EphB2
T2 construct: soluble human EphB1-His, EphB2-His, and EphB4-His ectodomains; commercially available human EphrinB1-Fc (EB1), EphrinB2-Fc (EB2), and EphrinB3-Fc (EB3) ectodomain proteins; purchased
T2 sequence (P29323 19-543 limits assumed): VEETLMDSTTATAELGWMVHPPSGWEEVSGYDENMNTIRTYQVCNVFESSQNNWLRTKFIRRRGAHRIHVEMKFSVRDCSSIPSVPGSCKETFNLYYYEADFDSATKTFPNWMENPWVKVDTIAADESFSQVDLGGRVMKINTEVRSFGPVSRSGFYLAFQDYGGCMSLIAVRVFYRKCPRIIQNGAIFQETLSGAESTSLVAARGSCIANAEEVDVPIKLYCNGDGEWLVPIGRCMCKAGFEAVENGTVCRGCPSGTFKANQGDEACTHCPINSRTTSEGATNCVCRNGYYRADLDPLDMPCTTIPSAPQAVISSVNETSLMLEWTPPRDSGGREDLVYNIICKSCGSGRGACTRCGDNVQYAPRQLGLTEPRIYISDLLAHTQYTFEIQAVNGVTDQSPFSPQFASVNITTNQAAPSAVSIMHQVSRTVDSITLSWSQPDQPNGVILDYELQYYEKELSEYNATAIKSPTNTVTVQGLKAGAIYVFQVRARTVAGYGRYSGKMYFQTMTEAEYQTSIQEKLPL

[3] = EphB1, 25 nM EphB1, 3.2 μM compound, A20-I as max control, 0* = less than 0, no inhibition, read-out: % Inhibition: Association + Dissociation (160 sec)
[4] = EphB1, 25 nM EphB1, 3.2 μM compound, A20-I as max control, 0* = less than 0, no inhibition, read-out: % Inhibition: Association ONLY (80 sec)
[5] = Absolute AUC/IC50, Table A, EphrinB2-EphB2
[6] = Absolute Association IC50 (300 sec), Table A, EphrinB2-EphB2
[7] = Absolute Dissociation IC50 (450 sec), Table A, EphrinB2-EphB2
[8] = Relative AUC/IC50, Table A, EphrinB2-EphB2, compound 7: association only
[9] = Relative Association IC50 (300 sec), Table A, EphrinB2-EphB2
[10] = Relative Dissociation IC50 (450 sec), Table A, EphrinB2-EphB2
[11] = tetramerization inhibitor IC50 (relative), association step, surmountable tetramer

Structure (SMILES) | inhibition at 3.2 µM [1, 3] [%] | inhibition at 3.2 µM [1, 4] [%] | IC50 [2, 5] [µM] | IC50 [2, 6] [µM] | IC50 [2, 7] [µM] | IC50 [2, 8] [µM] | IC50 [2, 9] [µM] | IC50 [2, 10] [µM] | EphB1 Inhibition Percent, Inhibition of Association ONLY [1] [%] | EphB1 Inhibition Percent, Inhibition of Association-Dissociation [1] [%] | other results
Oc1c(I)cc(CN2CCOCC2)c2cccnc12 [Compound 7, 7-iodo-5-(morpholinomethyl)quinolin-8-ol] | 46.8 | 29.5 | > 1.6 | 1.5 | > 1.6 | 0.44 | 0.89 | 1.07 |  |  | % Inhibited (AUC), Association + Dissociation ([1]; EphB1, 0-160 sec, 50 nM, 10 μM compound, Table 4): 38.4%; % Inhibition: Association + Dissociation (160 sec) ([1]; EphB1, 25 nM EphB1, 3.2 μM compound, A20-I as max control, 0* = less than 0, no inhibition): 53.1% and 44.3% and 52.4%; % Inhibited (AUC), Association ([1]; EphB1, 50 nM, 10 μM compound, Table 4): 25.0%; inhibition ([1]; EphB1, 10 μM 2×HCl salt, read-out: % Inhibited (AUC), Association): 36.6%; IC50 ([1]; EphB1, Association (75″), read-out: Absolute IC50): > 3.2 µM; IC50 ([1]; EphB1, Association (75″), read-out: Relative IC50): 0.85 µM; IC50 ([1]; EphB1, Association (AUC), read-out: Absolute IC50): > 3.2 µM; IC50 ([1]; EphB1, Association (AUC), read-out: Relative IC50): 0.98 µM; IC50 ([1]; EphB1, Dissociation (135″), read-out: Absolute IC50): 0.85 µM; IC50 ([1]; EphB1, Dissociation (135″), read-out: Relative IC50): 0.44 µM; IC50 ([1]; EphB1, Full AUC, read-out: Absolute IC50): 1.48 µM; IC50 ([1]; EphB1, Full AUC, read-out: Relative IC50): 0.24 µM; inhibition ([1]; EphB1, first 160 sec, 10 μM 2×HCl salt, read-out: % Inhibited (AUC), Association + Dissociation): 48.5%; inhibition ([1]; EphB1, highest dose, typically 3.2 μM, read-out: Association (% Inhibited (AUC))): 32.6%; inhibition ([1]; EphB1, highest dose, typically 3.2 μM, read-out: Association + Dissociation (% Inhibited (AUC))): 49.4%; tetramerization inhibitor activity [2]: stronger tetramerization inhibitor compared to A20; IC50 [2, 11]: ~0.6 µM
Oc1c(Br)cc(CN2CCOCC2)c2cccnc12 [Compound 6, 4-((7-bromo-8-hydroxyquinolin-1-ium-5-yl)methyl)morpholin-4-ium chloride] |  |  |  | 0.93 | 0.69 | 0.48 | 0.49 | 0.53 | 33.5 | 48.7 | 
Oc1ccc(CN2CCN(c3ccc(F)cc3F)CC2)c2cccnc12 [Compound 62, 5-((4-(2,4-difluorophenyl)piperazin-1-yl)methyl)quinolin-8-ol] |  |  | > 1.6 | > 1.6 | > 1.6 | > 1.6 | > 1.6 | > 1.6 | 17.9 | 14.7 | 
COc1ccc2[nH]cc(C(=O)N3CCOCC3)c2c1 [Compound 63, (5-methoxy-1H-indol-3-yl)(morpholino)methanone] | 0 | 1.19 | > 3.2 | > 3.2 | > 3.2 | > 3.2 | > 3.2 | > 3.2 | 1.2 |  | 
Oc1ccc(CN2CCN(Cc3ccc(C(F)(F)F)cc3)CC2)c2cccnc12 [Compound 48, 5-((4-(4-(trifluoromethyl)benzyl)piperazin-1-yl)methyl)quinolin-8-ol] | 19.8 | 2.6 | > 1.6 | > 1.6 | > 1.6 | > 1.6 | > 1.6 | > 1.6 |  |  | 
Oc1c(Cl)cc(CN2CCOCC2)c2cccnc12 [Compound 4, 4-((7-chloro-8-hydroxyquinolin-1-ium-5-yl)methyl)morpholin-4-ium chloride] |  |  | 0.93 | 1.26 | 0.76 | 0.51 | 0.53 | 0.55 | 34.2 | 48.4 | 
O=[N+]([O-])c1cc(CN2CCS(=O)(=O)CC2)c2cccnc2c1O [Compound 20, 4-((8-hydroxy-7-nitroquinolin-5-yl)methyl)thiomorpholine 1,1-dioxide] | 36 | 24 | > 3.2 | > 3.2 | > 3.2 |  | 2.14 | 2.09 |  |  | inhibition of EphB1-EphrinB2 binding ([1]; association step, general): 25%; IC50 [2, 11]: > 3 µM

— US20260374739A1, “SMALL MOLECULAR WEIGHT CHEMICAL COMPOUND TO ANTAGONIZE EPH-EPHRIN TETRAMERIZATION AND INHIBIT BIDIRECTIONAL SIGNALING” (THE BOARD OF REGENTS OF THE UNIVERSITY OF TEXAS SYSTEM, priority 2022, published 2026)
